Columns and labels:
Type in all cases: in vivo
[1] = test system: barnyardgrass (Echinochloa crus-galli); assay: Test B pre/postemergence
Summary of the method: (§1)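 Formulation: non-phytotoxic solvent blend with surfactant. Timing: preemergence on seeds, postemergence at 1- to 4-leaf (2–18 cm). Assessment: visual, 0–100 against controls, after 13–15 days' greenhouse growth.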

[2] = test system: wheat (Triticum aestivum); assay: Test B pre/postemergence
Summary of the method: as §1

[3] = test system: velvetleaf (Abutilon theophrasti); assay: Test B pre/postemergence
Summary of the method: as §1

[4] = test system: cocklebur (Xanthium strumarium); assay: Test B pre/postemergence
Summary of the method: as §1

[5] = test system: lambsquarters (Chenopodium album); assay: Test B pre/postemergence
Summary of the method: as §1

[6] = test system: crabgrass (Digitaria sanguinalis); assay: Test B pre/postemergence
Summary of the method: as §1

corn (Zea mays) = assay: Test B pre/postemergence
Summary of the method: as §1

[7] = test system: giant foxtail (Setaria faberii); assay: Test B pre/postemergence
Summary of the method: as §1

[8] = test system: pigweed (Amaranthus retroflexus); assay: Test B pre/postemergence
Summary of the method: as §1

[9] = test system: morningglory (Ipomoea coccinea); assay: Test B pre/postemergence
Summary of the method: as §1

[10] = test system: Surinam grass (Brachiaria decumbens); assay: Test B pre/postemergence
Summary of the method: as §1

[11] = test system: barnyardgrass (Echinochloa crus-galli); assay: Test B flooded paddy test; details: Flood, 1000 g ai/ha; scale 0 (no effect) to 100 (complete control)
Summary of the method: (§2)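 Rice, umbrella sedge, duck salad and barnyardgrass grown to 2-leaf stage under flooded paddy conditions and treated with formulated test chemicals. Kept in greenhouse 13–15 days, then visually rated against untreated controls on a 0–100 scale (0 no effect, 100 complete control).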

rice (Oryza sativa) = assay: Test B flooded paddy test; details: Flood, 1000 g ai/ha; scale 0 to 100
Summary of the method: as §2

[12] = test system: duck salad (Heteranthera limosa); assay: Test B flooded paddy test; details: Flood, 1000 g ai/ha; scale 0 to 100
Summary of the method: as §2

[13] = test system: umbrella sedge (Cyperus difformis); assay: Test B flooded paddy test; details: Flood, 1000 g ai/ha; scale 0 to 100
Summary of the method: as §2

[14] = test system: blackgrass (Alopecurus myosuroides); assay: Test B postemergence
Summary of the method: as §1

wild oat (Avena fatua) = assay: Test B postemergence
Summary of the method: as §1

[15] = Postemergence, 125 g ai/ha, scale 0 to 100 (0 no effect, 100 complete control)
[16] = Postemergence, 500 g ai/ha, scale 0 to 100
[17] = Preemergence, 125 g ai/ha, scale 0 to 100 (0 no effect, 100 complete control)
[18] = Preemergence, 500 g ai/ha, scale 0 to 100 (0 no effect, 100 complete control)
[19] = 125 g ai/ha, scale 0 to 100 (0 no effect, 100 complete control)

SMILES: CNN=Cc1nc(C2CC2)nc(N)c1Br [Compound 49]
- Barnyardgrass plant response rating [1, 15]: 30
- Plant response rating, Barnyardgrass [1, 16]: 70
- Plant response rating, Barnyardgrass [1, 17]: 30
- Barnyardgrass plant response rating [1, 18]: 60
- Wheat plant response rating [2, 15]: 30
- Plant response rating, Wheat [2, 16]: 40
- Plant response rating, Wheat [2, 17]: 30
- Plant response rating, Wheat [2, 18]: 70
- Velvetleaf plant response rating [3, 15]: 50
- Plant response rating, Velvetleaf [3, 16]: 80
- Plant response rating, Velvetleaf [3, 17]: 80
- Velvetleaf plant response rating [3, 18]: 90
- Cocklebur plant response rating [4, 15]: 90
- Plant response rating, Cocklebur [4, 16]: 100
- Plant response rating, Cocklebur [4, 17]: 80
- Cocklebur plant response rating [4, 18]: 90
- Lambsquarters plant response rating [5, 15]: 80
- Plant response rating, Lambsquarters [5, 16]: 90
- Plant response rating, Lambsquarters [5, 17]: 90
- Lambsquarters plant response rating [5, 18]: 100
- Crabgrass plant response rating [6, 15]: 30
- Plant response rating, Crabgrass [6, 16]: 80
- Plant response rating, Crabgrass [6, 17]: 80
- Crabgrass plant response rating [6, 18]: 90
- Corn plant response rating (corn (Zea mays); [15]): 0
- Plant response rating, Corn (corn (Zea mays); [16]): 30
- Plant response rating, Corn (corn (Zea mays); [17]): 10
- Corn plant response rating (corn (Zea mays); [18]): 40
- Foxtail, Giant plant response rating [7, 15]: 10
- Plant response rating, Foxtail, Giant [7, 16]: 70
- Plant response rating, Foxtail, Giant [7, 17]: 40
- Foxtail, Giant plant response rating [7, 18]: 70
- Pigweed plant response rating [8, 15]: 90
- Plant response rating, Pigweed [8, 16]: 90
- Plant response rating, Pigweed [8, 17]: 90
- Pigweed plant response rating [8, 18]: 100
- Morningglory plant response rating [9, 15]: 90
- Plant response rating, Morningglory [9, 16]: 100
- Plant response rating, Morningglory [9, 17]: 80
- Morningglory plant response rating [9, 18]: 100
- Surinam Grass plant response rating [10, 15]: 10
- Plant response rating, Surinam Grass [10, 16]: 60
- Plant response rating, Surinam Grass [10, 17]: 40
- Surinam Grass plant response rating [10, 18]: 60
- Plant response rating, Barnyardgrass [11]: 50
- Plant response rating, Rice (rice (Oryza sativa)): 30
- Plant response rating, Ducksalad [12]: 60
- Plant response rating, Sedge, Umbrella [13]: 70
- Blackgrass plant response rating [14, 19]: 20
- Plant response rating, Blackgrass ([14]; 500 g ai/ha, scale 0 to 100): 50
- Oat, Wild plant response rating (wild oat (Avena fatua); [19]): 30
- Plant response rating, Oat, Wild (wild oat (Avena fatua); 500 g ai/ha, scale 0 to 100): 60

Source: US8802597B2, “Herbicidal pyrimidines” (E I du Pont de Nemours and Company, priority 2003, dated 2014)
